Target: CBP (Homo sapiens (Human), UniProt Q92793)
Assay: In vitro CBP inhibition (AlphaScreen, biotinylated H4-tetraacetyl peptide)
Format: binding
Details: AlphaScreen, Table 29; read-out: CBP IC50
In short: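 His-tagged CBP expressed in E. coli (50 nM final) incubated with biotinylated H4K5/8/12/16(Ac) peptide (20 nM final) in 50 mM HEPES pH 7.3, 10 mM NaCl, 0.25 mM TCEP, 0.1% BSA, 0.005% Brij-35, 0.4% DMSO, 20 min at room temp.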

CBP, sequence (Q92793 1081-1197): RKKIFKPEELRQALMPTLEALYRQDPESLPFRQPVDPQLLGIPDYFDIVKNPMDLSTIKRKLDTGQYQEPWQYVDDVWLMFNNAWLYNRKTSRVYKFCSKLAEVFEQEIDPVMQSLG

| IC50 | Structure (SMILES) |
| --- | --- |
| < 500 nM | Cn1cc(-c2cnn(-c3ccccc3C(=O)NC#N)c2)c(-c2ccc(F)cc2)cc1=O [Example 288, N-cyano-2-(4-(4-(4-fluorophenyl)-1-methyl-6-oxo-1,6-dihydropyridin-3-yl)-1H-pyrazol-1-yl)benzamide] |
| < 500 nM | Cn1cc(-c2cc(=O)n(C)cc2-c2cnn(-c3ccccc3C(=O)NC#N)c2)cn1 [Example 289, N-cyano-2-(4-(1-methyl-4-(1-methyl-1H-pyrazol-4-yl)-6-oxo-1,6-dihydropyridin-3-yl)-1H-pyrazol-1-yl)benzamide] |
| < 500 nM | COc1ccc(-c2cc(=O)n(C)cc2-c2cnn(-c3ccccc3C(=O)NC#N)c2)cc1 [Example 290, N-cyano-2-(4-(4-(4-methoxyphenyl)-1-methyl-6-oxo-1,6-dihydropyridin-3-yl)-1H-pyrazol-1-yl)benzamide] |
| < 500 nM | Cn1cc(-c2cnn(-c3ccccc3C(=O)NC#N)c2)c(-c2ccc(Cl)cc2)cc1=O [Example 291, 2-(4-(4-(4-chlorophenyl)-1-methyl-6-oxo-1,6-dihydropyridin-3-yl)-1H-pyrazol-1-yl)-N-cyanobenzamide] |
| < 500 nM | Cn1ccc(-c2cc(=O)n(C)cc2-c2cnn(-c3ccccc3C(=O)NC#N)c2)cc1=O [Example 293, N-cyano-2-(4-(1,1′-dimethyl-2′,6-dioxo-1,1′,2′,6-tetrahydro-[4,4′-bipyridin]-3-yl)-1H-pyrazol-1-yl)benzamide] |
| < 500 nM | CNc1ncc(-c2cc(=O)n(C)cc2-c2cnn(-c3ccccc3C(=O)NC#N)c2)cn1 [Example 295, N-cyano-2-(4-(1-methyl-4-(2-(methylamino)pyrimidin-5-yl)-6-oxo-1,6-dihydropyridin-3-yl)-1H-pyrazol-1-yl)benzamide] |
| < 500 nM | CCOc1ccc(-c2cc(=O)n(C)cc2-c2cnn(-c3ccccc3C(=O)NC#N)c2)cn1 [Example 296, N-cyano-2-(4-(6-ethoxy-1′-methyl-6′-oxo-1′,6′-dihydro-[3,4′-bipyridin]-3′-yl)-1H-pyrazol-1-yl)benzamide] |
| < 500 nM | Cn1cc(-c2cnn(-c3ccccc3-c3nnn[nH]3)c2)c(-c2ccc(Cl)cc2)cc1=O [Example 297, 5-(1-(2-(1H-tetrazol-5-yl)phenyl)-1H-pyrazol-4-yl)-4-(4-chlorophenyl)-1-methylpyridin-2(1H)-one] |
| < 500 nM | COc1ccc(-c2cc(=O)n(C)cc2-c2cnn(-c3ccccc3-c3nnn[nH]3)c2)cc1 [Example 298, 4-(4-Methoxy-phenyl)-1-methyl-5-{1-[2-(1H-tetrazol-5-yl)-phenyl]-1H-pyrazol-4-yl}-1H-pyridin-2-one] |
| < 500 nM | Cn1cc(-c2cc(=O)n(C)cc2-c2cnn(-c3ccccc3-c3nnn[nH]3)c2)cn1 [Example 300, 1-Methyl-4-(1-methyl-1H-pyrazol-4-yl)-5-{1-[2-(1H-tetrazol-5-yl)-phenyl]-1H-pyrazol-4-yl}-1H-pyridin-2-one] |
| < 500 nM | Cn1cc(-c2cnn(-c3ccccc3-c3nnn[nH]3)c2)c(C2CC2)cc1=O [Example 301, 4-Cyclopropyl-1-methyl-5-{1-[2-(1H-tetrazol-5-yl)-phenyl]-1H-pyrazol-4-yl}-1H-pyridin-2-one] |
| < 500 nM | Cn1cc(-c2cnn(-c3ccccc3C(=O)NS(C)(=O)=O)c2)c(C2CC2)cc1=O [Example 302, N-{2-[4-(4-Cyclopropyl-1-methyl-6-oxo-1,6-dihydro-pyridin-3-yl)-pyrazol-1-yl]-benzoyl}-methanesulfonamide] |
| < 500 nM | CCS(=O)(=O)NC(=O)c1ccccc1-n1cc(-c2cn(C)c(=O)cc2C2CC2)cn1 [Example 303, Ethanesulfonic acid 2-[4-(4-cyclopropyl-1-methyl-6-oxo-1,6-dihydro-pyridin-3-yl)-pyrazol-1-yl]-benzoylamide] |
| < 500 nM | CN(C)S(=O)(=O)NC(=O)c1ccccc1-n1cc(-c2cn(C)c(=O)cc2C2CC2)cn1 [Example 304, N-[(dimethylamino)sulfonyl]-{2-[4-(4-cyclopropyl-1-methyl-6-oxo(3-hydropyridyl))pyrazolyl]phenyl}carboxamide] |
| < 500 nM | COc1ccc(C#N)cc1-n1cc(-c2cn(C)c(=O)cc2-c2ccn(C)c(=O)c2)cn1 [Example 305, 3-(4-(1,1′-dimethyl-2′,6-dioxo-1,1′,2′,6-tetrahydro-[4,4′-bipyridin]-3-yl)-1H-pyrazol-1-yl)-4-methoxybenzonitrile] |
| < 500 nM | COc1ccc(-c2cc(=O)n(C)cc2-c2cnn(-c3cc(C#N)ccc3OC)c2)cn1 [Example 306, 4-Methoxy-3-[4-(6-methoxy-1′-methyl-6′-oxo-1′,6′-dihydro-[3,4′]bipyridinyl-3′-yl)-pyrazol-1-yl]-benzonitrile] |
| < 500 nM | COc1ccc(C#N)cc1-n1cc(-c2cn(C)c(=O)cc2-c2ccc(Cl)cc2)cn1 [Example 307, 3-{4-[4-(4-Chloro-phenyl)-1-methyl-6-oxo-1,6-dihydro-pyridin-3-yl]-pyrazol-1-yl}-4-methoxy-benzonitrile] |
| < 500 nM | COc1ccc(-c2cc(=O)n(C)cc2-c2cnn(C(C)c3ccccc3)c2)cn1 (stereo not drawn) [Example 308, 6-methoxy-1′-methyl-5′-(1-(1-phenylethyl)-1H-pyrazol-4-yl)-[3,4′-bipyridin]-2′(1′H)-one] |

| IC50 | Structure (SMILES) |
| --- | --- |
| < 500 nM | CNc1ncc(-c2cc(=O)n(C)cc2-c2cnn(C(C)c3ccccc3)c2)cn1 (stereo not drawn) [Example 309, 1-methyl-4-(2-(methylamino)pyrimidin-5-yl)-5-(1-(1-phenylethyl)-1H-pyrazol-4-yl)pyridin-2(1H)-one] |
| < 500 nM | CC(c1ccccc1)n1cc(-c2cn(C)c(=O)cc2-c2ccn(C)c(=O)c2)cn1 (stereo not drawn) [Example 310, 1,1′-dimethyl-5-(1-(1-phenylethyl)-1H-pyrazol-4-yl)-[4,4′-bipyridine]-2,2′(1H,1′H)-dione] |
| < 500 nM | CCNc1ncc(-c2cc(=O)n(C)cc2-c2cnn(C(C)c3ccccc3)c2)cn1 (stereo not drawn) [Example 311] |
| < 500 nM | COCCNc1ncc(-c2cc(=O)n(C)cc2-c2cnn(C(C)c3ccccc3)c2)cn1 (stereo not drawn) [Example 312, 4-(2-((2-methoxyethyl)amino)pyrimidin-5-yl)-1-methyl-5-(1-(1-phenylethyl)-1H-pyrazol-4-yl)pyridin-2(1H)-one] |
| < 500 nM | CC(c1ccccc1)n1cc(-c2cn(C)c(=O)cc2-c2ccc(OCCCN(C)C)nc2)cn1 (stereo not drawn) [Example 313, 6-(3-(dimethylamino)propoxy)-1′-methyl-5′-(1-(1-phenylethyl)-1H-pyrazol-4-yl)-[3,4′-bipyridin]-2′(1′H)-one] |
| < 500 nM | Cn1ccc(-c2cc(=O)n(C)cc2-c2cnn(-c3ccccc3Cl)c2)cc1=O [Example 314, 5-(1-(2-chlorophenyl)-1H-pyrazol-4-yl)-1,1′-dimethyl-[4,4′-bipyridine]-2,2′(1H,1′H)-dione] |
| < 500 nM | COc1ncc(-c2cc(=O)n(C)cc2-c2cnn(-c3ccccc3Cl)c2)cn1 [Example 315, 5-(1-(2-chlorophenyl)-1H-pyrazol-4-yl)-4-(2-methoxypyrimidin-5-yl)-1-methylpyridin-2(1H)-one] |
| < 500 nM | COc1ncc(-c2cc(=O)n(C)cc2-c2cnn(-c3ccccc3Cl)c2)cc1C [Example 316, 5′-(1-(2-chlorophenyl)-1H-pyrazol-4-yl)-6-methoxy-1′,5-dimethyl-[3,4′-bipyridin]-2′(1′H)-one] |
| < 500 nM | COc1cc(-c2cc(=O)n(C)cc2-c2cnn(-c3ccccc3Cl)c2)ccn1 [Example 317, 5-(1-(2-chlorophenyl)-1H-pyrazol-4-yl)-2′-methoxy-1-methyl-[4,4′-bipyridin]-2(1H)-one] |
| < 500 nM | Cn1ccc(-c2cc(=O)n(C)cc2-c2cnn(-c3ccccc3F)c2)cc1=O [Example 318, 5-(1-(2-fluorophenyl)-1H-pyrazol-4-yl)-1,1′-dimethyl-[4,4′-bipyridine]-2,2′(1H,1′H)-dione] |
| < 500 nM | COc1ccc(-c2cc(=O)n(C)cc2-c2cnn(-c3ccccc3F)c2)cn1 [Example 319] |
| < 500 nM | COc1ncc(-c2cc(=O)n(C)cc2-c2cnn(-c3ccccc3F)c2)cn1 [Example 320, 5-(1-(2-fluorophenyl)-1H-pyrazol-4-yl)-4-(2-methoxypyrimidin-5-yl)-1-methylpyridin-2(1H)-one] |
| < 500 nM | Cn1cc(-c2cnn(C3CCCCC3O)c2)c(-c2ccccc2)cc1=O (stereo not drawn) [Example 321, 5-(1-(2-hydroxycyclohexyl)-1H-pyrazol-4-yl)-1-methyl-4-phenylpyridin-2(1H)-one] |
| < 500 nM | Cn1cc(-c2cnn(-c3cccc(Cl)c3C#N)c2)c(-c2cnc(NC3CC3)nc2)cc1=O [Example 322, 2-chloro-6-[4-[4-[2-(cyclopropylamino)pyrimidin-5-yl]-1-methyl-6-oxo-3-pyridyl]pyrazol-1-yl]benzonitrile] |
| < 500 nM | COCCNc1ncc(-c2cc(=O)n(C)cc2-c2cnn(-c3ccccc3C#N)c2)cn1 [Example 324, 2-(4-(4-(2-((2-methoxyethyl)amino)pyrimidin-5-yl)-1-methyl-6-oxo-1,6-dihydropyridin-3-yl)-1H-pyrazol-1-yl)benzonitrile] |
| < 500 nM | CCNc1ncc(-c2cc(=O)n(C)cc2-c2cnn(-c3cccc(Cl)c3C#N)c2)cn1 [Example 325, 2-chloro-6-(4-(4-(2-(ethylamino)pyrimidin-5-yl)-1-methyl-6-oxo-1,6-dihydropyridin-3-yl)-1H-pyrazol-1-yl)benzonitrile] |
| < 500 nM | COCCNc1ncc(-c2cc(=O)n(C)cc2-c2cnn(-c3cccc(Cl)c3C#N)c2)cn1 [Example 326, 2-chloro-6-(4-(4-(2-((2-methoxyethyl)amino)pyrimidin-5-yl)-1-methyl-6-oxo-1,6-dihydropyridin-3-yl)-1H-pyrazol-1-yl)benzonitrile] |
| < 500 nM | Cn1cc(-c2cnn(-c3cccc(Cl)c3C#N)c2)c(-c2cnc(NCC3CC3)nc2)cc1=O [Example 327, 2-chloro-6-(4-(4-(2-((cyclopropylmethyl)amino)pyrimidin-5-yl)-1-methyl-6-oxo-1,6-dihydropyridin-3-yl)-1H-pyrazol-1-yl)benzonitrile] |
